Experimental findings from patent publication US11548855B2, “Pyrazole amide compound and application thereof, and fungicide” (Shandong United Pesticide Industry Co. Ltd., priority 2017, dated 2023) are described below.

Structures are written as SMILES. Where two headings read alike, the source gives them in different places.

Holding throughout (format): in vivo
One experiment has as its system cucumber powdery mildew. Description: Greenhouse pot test, cucumber powdery mildew. The settings on record: for pest or weed control at 100 µg/mL / pest or weed control at 6.25 µg/mL / pest or weed control at 25 µg/mL: Cucumis sativus, 192 h, read-out: Control effect (%) Cucumber powdery mildew. On the procedure:
(§1) Test method: each of the test compounds in Table 1 was dispensed to 5 wt % emulsifiable concentrate (hereinafter referred to as 5% EC). The greenhouse pot test was used in each experiment, and the effective concentrations of each compound were illustrated in Table 1.
Cucumber powdery mildew: cucumber seedling in a true leaf period with uniform growth was selected, and dried in the shade for 24 h after spray treatment. Fresh cucumber powdery mildew spores on the cucumber leaves were collected and washed, and filtered through a double gauze to prepare a spores suspension with concentration of about 100,000/mL, then spray inoculation was applied. The test materials inoculated were moved into a greenhouse (lighting 21-23° C.), after 8 days, the grading investigation was carried out according to the disease incidence condition of blank control, and the control effect in a unit of % was calculated according to disease index.
(§2) The investigation method: “Guidelines for the field efficacy trials of pesticides” was adopted as the grading standard, and the control effect in a unit of % was calculated based on the disease index. Disease index=Σ(number of diseased leaves at each grade×relative grade value)×100/(total number of leaves×9); Control effect (%)=(disease index of control−disease index of treated)×100/disease index of control;
(§3) The compounds provided by the present disclosure and some control compounds were tested by the same methods in the Test example 1, except that the effective concentrations of the compounds in this Test example are shown in Table 2.

Experiment [1] deals with corn rust (Puccinia sorghi). Description: Greenhouse pot test, corn rust. The settings on record: Puccinia sorghi, 168 h, read-out: Control effect (%) Corn rust; for pest or weed control at 6.25 µg/mL: 6.25 mg/L; for pest or weed control at 25 µg/mL: 25 mg/L; for pest or weed control at 100 µg/mL: 100 mg/L. On the procedure: as §1
Corn rust: two-three leaf stage potted corn seedling with uniform growth was selected and made foliar spray treatment with 5% EC, the blank control sprayed with clean water was additionally arranged, three replicates were carried out. After 24 h, the leaves of the host plants were inoculated with sporangial suspensions of the fungi corn rust (Puccinia sorghi), the plants were stored in humidity chamber (temperature: lighting 25° C., dark 20° C., relative humidity 95-100%) and then transferred to greenhouse (25±1° C.) 24 h after infection. After 7 days, the screening results were investigated according to the disease incidence condition of blank control.
as §2, §3

In experiment [2] the test system is wheat powdery mildew (Erysiphe graminis). Kind of experiment: Greenhouse pot test, wheat powdery mildew. Conditions: Blumeria graminis, 168 h, read-out: Control effect (%) Wheat powdery mildew; for pest or weed control at 6.25 µg/mL: 6.25 mg/L; for pest or weed control at 25 µg/mL: 25 mg/L; for pest or weed control at 100 µg/mL: 100 mg/L.
Description: as §1
Wheat powdery mildew: two-leaf stage potted wheat seedling with uniform growth was selected and made foliar spray treatment with 5% EC, the blank control sprayed with clean water was additionally arranged, three replicates were carried out. After 24 h, the leaves of the host plants were inoculated by shake-down method with sporangial suspensions of the fungi wheat powdery mildew (Erysiphe graminis), the plants were stored in a greenhouse (25±1° C.). After 7 days, the screening results were investigated according to the disease incidence condition of blank control.
as §2, §3

For experiment [3], the system named is soybean rust (Phakopsora pacchyrhizi Sydow). Kind of experiment: Greenhouse pot test, soybean rust. Conditions: Glycine max, 168 h, read-out: Control effect (%) Soybean rust; for pest or weed control at 6.25 µg/mL: 6.25 mg/L; for pest or weed control at 25 µg/mL: 25 mg/L; for pest or weed control at 100 µg/mL: 100 mg/L. As to the method: as §1
Soybean rust: two-leaf stage potted soybean seedling with uniform growth was selected and made foliar spray treatment with 5% EC, the blank control sprayed with clean water was additionally arranged, three replicates were carried out. After 24 h, the leaves of the host plants were inoculated with sporangial suspensions of the fungi soybean rust (Phakopsora pacchyrhizi Sydow), the plants were stored in humidity chamber (temperature 20-25° C., relative humidity>95%) and then transferred to greenhouse (25±1° C.) 8-16 h after infection. After 7 days, the screening results were investigated according to the disease incidence condition of blank control.
as §2, §3

As for `CC1COC(Cn2cncn2)(c2ccc(Oc3ccc(Cl)cc3)cc2Cl)O1` (stereo not drawn) [Difenoconazole], the pest or weed control at 100 µg/mL with cucumber powdery mildew (greenhouse pot, 100 mg/L) was 80%.

`Cn1cc(C(=O)Nc2ccccc2Oc2ccc(C(F)(F)F)cc2Cl)c(C(F)F)n1` [Compound 8]: the pest or weed control at 1.5625 µg/mL in experiment [1] (1.5625 mg/L) was determined as 85%; in experiment [2] (1.5625 mg/L), 70%; in experiment [3] (1.5625 mg/L), 98%. In addition, the pest or weed control at 3.125 µg/mL in experiment [1] (3.1250 mg/L) worked out at 98%; in experiment [2] (3.1250 mg/L), 90%; in experiment [3] (3.1250 mg/L), 100%. The pest or weed control at 6.25 µg/mL in experiment [1] came out at 95%; with cucumber powdery mildew (greenhouse pot, 6.25 mg/L) it was 40%; in experiment [2] it was 65%; in experiment [3], 99%. For the same compound, the pest or weed control at 25 µg/mL in experiment [1] came out at 99%; with cucumber powdery mildew (greenhouse pot, 25 mg/L), 60%; in experiment [2] it was 75%; in experiment [3], 100%. Further, the pest or weed control at 100 µg/mL in experiment [1] turned out to be 100%; with cucumber powdery mildew (greenhouse pot, 100 mg/L) it was 95%; in experiment [2], 94%; in experiment [3], 100%.

As to `Cn1cc(C(=O)Nc2ccccc2Oc2cc(C(F)(F)F)ccc2C(F)(F)F)c(C(F)F)n1` [Compound 5], in experiment [1], the pest or weed control at 6.25 µg/mL came out at 70%, the pest or weed control at 25 µg/mL turned out to be 75% and the pest or weed control at 100 µg/mL worked out at 85%. Moreover, in experiment [2], the pest or weed control at 6.25 µg/mL amounted to 10%, the pest or weed control at 25 µg/mL is 40% and the pest or weed control at 100 µg/mL was determined as 50%. Moreover, in experiment [3], the pest or weed control at 6.25 µg/mL turned out to be 95%, the pest or weed control at 25 µg/mL is 98% and the pest or weed control at 100 µg/mL was found to be 100%.

Take `Cn1nc(C(F)F)c(C(=O)Nc2ccccc2Oc2ccc(C(F)(F)F)cc2Br)c1F` [Compound 2]: the pest or weed control at 6.25 µg/mL in experiment [1] was 98%; in the experiment with cucumber powdery mildew (greenhouse pot, 6.25 mg/L), 45%; in experiment [2], 70%; in experiment [3], 96%. Further, the pest or weed control at 25 µg/mL in experiment [1] worked out at 100%; in the experiment on cucumber powdery mildew (greenhouse pot, 25 mg/L), 55%; in experiment [2], 75%; in experiment [3], 100%. The pest or weed control at 100 µg/mL in experiment [1] turned out to be 100%; with cucumber powdery mildew (greenhouse pot, 100 mg/L), 88%; in experiment [2] it was 85%; in experiment [3], 100%.

As to `Cn1cc(C(=O)Nc2ccccc2-c2cc(F)c(F)c(F)c2)c(C(F)F)n1` [Fluxapyroxad], the “Control effect (%) Cucumber powdery mildew” value with cucumber powdery mildew (greenhouse pot, 1.5625 mg/L) is reported as 55%; in the experiment with cucumber powdery mildew (greenhouse pot, 6.25 mg/L), 95%; in the experiment with cucumber powdery mildew (greenhouse pot, 25 mg/L), 100%; with cucumber powdery mildew (greenhouse pot, 100 mg/L) it was 100%.

On to `Cn1nc(C(F)F)c(C(=O)Nc2ccccc2Oc2ccc(C(F)(F)F)cc2C(F)(F)F)c1F` [Compound 6], for which the pest or weed control at 6.25 µg/mL is 98% in experiment [1]; 50% in the experiment on cucumber powdery mildew (greenhouse pot, 6.25 mg/L); 85% in experiment [2]; 90% in experiment [3]. Also, the pest or weed control at 25 µg/mL in experiment [1] was 100%; in the experiment on cucumber powdery mildew (greenhouse pot, 25 mg/L), 75%; in experiment [2] it was 90%; in experiment [3], 100%. For the same compound, the pest or weed control at 100 µg/mL was determined as 100% in experiment [1]; 98% with cucumber powdery mildew (greenhouse pot, 100 mg/L); 92% in experiment [2]; 100% in experiment [3].

Turning to `CCCCc1c(C)nc(NCC)[nH]c1=O` [Ethirimol], the pest or weed control at 100 µg/mL in the experiment on cucumber powdery mildew came out at 100%.
